# Key:
# [1] = system: crabgrass; test: Test Example 2: soil surface treatment, upland pot test; type: in vivo, Digitaria sanguinalis L.; details: observed 20th to 28th day
# How it was run: (§1)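 Pots (1/170,000 ha) filled with upland field soil were seeded, then treated on the following day by spraying the soil surface with diluted formulation (1,500 L/ha) at a fixed a.i. dose. Control was rated visually on a 0–100% scale at 20–28 days.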
# [2] = system: wheat; test: as above; type: in vivo, Triticum spp.; details: observed 20th to 28th day
# Source text: Upland field soil was put into a 1/170,000 ha pot, and seed of various plants (barnyardgrass, crabgrass, green foxtail, redroot pigweed, prickly sida, velvetleaf, rice, wheat, corn, soybean) were sown. On the 1st day after the sowing, a wettable powder or emulsifiable concentrate having the compound of the present invention formulated in accordance with a usual formulation method, was weighed so that the active ingredient would be a predetermined amount, and diluted with water in an amount of 1,500 L/ha. The herbicide thus adjusted was applied by a small size sprayer for soil surface treatment. On the 20th to 28th days after the application of the herbicide, the growth of the respective plants was visually observed, and the herbicidal effects were evaluated by the growth controlling degrees (%) ranging from 0 (equivalent to the non-treated plot) to 100 (complete kill), whereby the results shown in Table 4, were obtained.
# [3] = system: rice; test: as above; type: in vivo, Oryza sativa L.; details: observed 20th to 28th day
# How it was run: as §1
# [4] = system: japanese ribbon wapato; test: Test Example 3: paddy pot test, application under submerged conditions; type: in vivo, Sagittaria pygniaea; details: submerged application at primary leaf stage, visually observed 14 days after application, 0 = non-treated, 100 = complete kill
# How it was run: (§2)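 Barnyardgrass and japanese bulrush sown in flooded paddy soil in greenhouse pots, japanese ribbon wapato tubers planted 1–2 days later; water depth kept at 3–4 cm. Diluted wettable powder or emulsifiable concentrate applied into water at 0.5-leaf or primary-leaf stage at set active-ingredient doses. Growth control scored visually at 14 days, 0 (untreated) to 100% (complete kill).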
# [5] = system: rice (var. Nihonbare); test: Test Example 3: paddy pot test, transplanted rice; type: in vivo, Oryza sativa L.; details: applied 4th day after transplantation, visually observed 21st day after application, 0 = non-treated, 100 = complete kill
# How it was run: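 Rice (var. Nihonbare) at 2 leaf stage transplanted 3 cm deep into puddled paddy soil under 3–4 cm flooding; on day 4 after transplanting, diluted wettable powder or emulsifiable concentrate applied by pipette under submerged conditions at a set active-ingredient dose. Growth scored visually 21 days after application, 0 (untreated) to 100 (complete kill) %.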
# [6] = system: corn; test: Test Example 2: soil surface treatment, upland pot test; type: in vivo, Zea mays L.; details: observed 20th to 28th day
# How it was run: as §1
# [7] = system: soybean; test: as above; type: in vivo, Glycine max Merr.; details: observed 20th to 28th day
# How it was run: as §1
# [8] = system: japanese bulrush; test: Test Example 3: paddy pot test, application under submerged conditions; type: in vivo, Scirpus juncoides; details: submerged application at 0.5 leaf stage, visually observed 14 days after application, 0 = non-treated, 100 = complete kill
# How it was run: as §2
# [9] = system: barnyardgrass; test: Test Example 2: soil surface treatment, upland pot test; type: in vivo, Echinochloa crus-galli L.; details: observed 20th to 28th day
# How it was run: as §1
# [10] = system: redroot pigweed; test: as above; type: in vivo, Amaranthus retroflexus L.; details: observed 20th to 28th day
# How it was run: as §1
# [11] = system: green foxtail; test: as above; type: in vivo, Setaria viridis L.; details: observed 20th to 28th day
# How it was run: as §1
# [12] = system: velvetleaf; test: as above; type: in vivo, Abutilon theophrasti MEDIC.; details: observed 20th to 28th day
# How it was run: as §1
# [13] = system: prickly sida; test: as above; type: in vivo, Sida spinosa L.; details: observed 20th to 28th day
# How it was run: as §1
# [14] = system: barnyardgrass; test: Test Example 3: paddy pot test, application under submerged conditions; type: in vivo, Echinochloa crus-galli L.; details: submerged application at 0.5 leaf stage, visually observed 14 days after application, 0 = non-treated, 100 = complete kill
# How it was run: as §2
# [15] = active ingredient 1000 g/ha, 0 = non-treated, 100 = complete kill
smiles,measurement,setting,value
CC(C)C(NC(=O)Cc1ccccc1)c1cnccc1C(F)(F)F (centres unmarked) [Compound I-3],Growth controlling degree (%) Crabgrass,[1]; active ingredient 1000 g/ha,90%
same,Growth controlling degree (%) wheat,[2]; active ingredient 1000 g/ha,0%
same,Growth controlling degree (%) Rice,[3]; active ingredient 1000 g/ha,10%
same,Growth controlling degree (%) Japanese ribbon wapato,[4]; active ingredient 1000 g/ha,30%
same,Growth controlling degree (%) Rice,[5]; active ingredient 1000 g/ha,20%
same,Growth controlling degree (%) Corn,[6]; active ingredient 1000 g/ha,0%
same,Growth controlling degree (%) Soyabean,[7]; active ingredient 1000 g/ha,0%
same,Growth controlling degree (%) Japanese bulrush,[8]; active ingredient 1000 g/ha,98%
same,Growth controlling degree (%) Barnyardgrass,[9]; [15],0%
same,Growth controlling degree (%) Redroot pigweed,[10]; active ingredient 1000 g/ha,20%
same,Growth controlling degree (%) Green foxtail,[11]; active ingredient 1000 g/ha,90%
same,Growth controlling degree (%) Velvetleaf,[12]; active ingredient 1000 g/ha,0%
same,Growth controlling degree (%) Prickly sida,[13]; active ingredient 1000 g/ha,10%
same,Growth controlling degree (%) Barnyardgrass,[14]; active ingredient 1000 g/ha,90%
CC(C)C(NC(=O)Cc1c(F)cccc1F)c1cnccc1C(F)(F)F (centres unmarked) [Compound I-5],Growth controlling degree (%) Crabgrass,[1]; active ingredient 1000 g/ha,90%
same,Growth controlling degree (%) wheat,[2]; active ingredient 1000 g/ha,10%
same,Growth controlling degree (%) Rice,[3]; active ingredient 1000 g/ha,10%
same,Growth controlling degree (%) Japanese ribbon wapato,[4]; active ingredient 500 g/ha,50%
same,Growth controlling degree (%) Rice,[5]; active ingredient 500 g/ha,20%
same,Growth controlling degree (%) Corn,[6]; active ingredient 1000 g/ha,20%
same,Growth controlling degree (%) Soyabean,[7]; active ingredient 1000 g/ha,10%
same,Growth controlling degree (%) Japanese bulrush,[8]; active ingredient 500 g/ha,90%
same,Growth controlling degree (%) Barnyardgrass,[9]; [15],30%
same,Growth controlling degree (%) Redroot pigweed,[10]; active ingredient 1000 g/ha,0%
same,Growth controlling degree (%) Green foxtail,[11]; active ingredient 1000 g/ha,70%
same,Growth controlling degree (%) Velvetleaf,[12]; active ingredient 1000 g/ha,0%
same,Growth controlling degree (%) Prickly sida,[13]; active ingredient 1000 g/ha,0%
same,Growth controlling degree (%) Barnyardgrass,[14]; active ingredient 500 g/ha,60%
CC(C)C(NC(=O)Cc1ccc(Br)cc1)c1cnccc1C(F)(F)F (centres unmarked) [Compound I-8],Growth controlling degree (%) Crabgrass,[1]; active ingredient 1000 g/ha,50%
same,Growth controlling degree (%) wheat,[2]; active ingredient 1000 g/ha,30%
same,Growth controlling degree (%) Rice,[3]; active ingredient 1000 g/ha,10%
same,Growth controlling degree (%) Japanese ribbon wapato,[4]; active ingredient 500 g/ha,10%
same,Growth controlling degree (%) Rice,[5]; active ingredient 500 g/ha,0%
same,Growth controlling degree (%) Corn,[6]; active ingredient 1000 g/ha,10%
same,Growth controlling degree (%) Soyabean,[7]; active ingredient 1000 g/ha,30%
same,Growth controlling degree (%) Japanese bulrush,[8]; active ingredient 500 g/ha,90%
same,Growth controlling degree (%) Barnyardgrass,[9]; [15],50%
same,Growth controlling degree (%) Redroot pigweed,[10]; active ingredient 1000 g/ha,80%
same,Growth controlling degree (%) Green foxtail,[11]; active ingredient 1000 g/ha,50%
same,Growth controlling degree (%) Velvetleaf,[12]; active ingredient 1000 g/ha,0%
same,Growth controlling degree (%) Prickly sida,[13]; active ingredient 1000 g/ha,50%
same,Growth controlling degree (%) Barnyardgrass,[14]; active ingredient 500 g/ha,90%
CC(C)C(c1cnccc1C(F)(F)F)N(C)C(=O)Cc1cccc(F)c1 (centres unmarked) [Compound I-20],Growth controlling degree (%) Crabgrass,[1]; active ingredient 500 g/ha,100%
same,Growth controlling degree (%) wheat,[2]; active ingredient 500 g/ha,40%
same,Growth controlling degree (%) Rice,[3]; active ingredient 500 g/ha,0%
same,Growth controlling degree (%) Japanese ribbon wapato,[4]; active ingredient 500 g/ha,90%
same,Growth controlling degree (%) Rice,[5]; active ingredient 500 g/ha,40%
same,Growth controlling degree (%) Corn,[6]; active ingredient 500 g/ha,70%
same,Growth controlling degree (%) Soyabean,[7]; active ingredient 500 g/ha,30%
same,Growth controlling degree (%) Japanese bulrush,[8]; active ingredient 500 g/ha,90%
same,Growth controlling degree (%) Barnyardgrass,[9]; active ingredient 500 g/ha,100%
same,Growth controlling degree (%) Redroot pigweed,[10]; active ingredient 500 g/ha,95%
same,Growth controlling degree (%) Green foxtail,[11]; active ingredient 500 g/ha,100%
same,Growth controlling degree (%) Velvetleaf,[12]; active ingredient 500 g/ha,100%
same,Growth controlling degree (%) Prickly sida,[13]; active ingredient 500 g/ha,100%
CC(C)C(c1cnccc1Cl)N(C)C(=O)Cc1ccccc1 (centres unmarked) [I-22],Growth controlling degree (%) Crabgrass,[1]; active ingredient 500 g/ha,95%
same,Growth controlling degree (%) wheat,[2]; active ingredient 500 g/ha,30%
same,Growth controlling degree (%) Rice,[3]; active ingredient 500 g/ha,10%
same,Growth controlling degree (%) Japanese ribbon wapato,[4]; active ingredient 500 g/ha,95%
same,Growth controlling degree (%) Rice,[5]; active ingredient 500 g/ha,0%
same,Growth controlling degree (%) Corn,[6]; active ingredient 500 g/ha,20%
same,Growth controlling degree (%) Soyabean,[7]; active ingredient 500 g/ha,10%
same,Growth controlling degree (%) Japanese bulrush,[8]; active ingredient 500 g/ha,95%
same,Growth controlling degree (%) Barnyardgrass,[9]; active ingredient 500 g/ha,90%
same,Growth controlling degree (%) Redroot pigweed,[10]; active ingredient 500 g/ha,90%
same,Growth controlling degree (%) Green foxtail,[11]; active ingredient 500 g/ha,90%
same,Growth controlling degree (%) Velvetleaf,[12]; active ingredient 500 g/ha,70%
same,Growth controlling degree (%) Prickly sida,[13]; active ingredient 500 g/ha,70%
CCCOC(=O)N(C)C(c1cnccc1C(F)(F)F)C(C)C (centres unmarked) [I-203],Growth controlling degree (%) Crabgrass,[1]; active ingredient 250 g/ha,100%
same,Growth controlling degree (%) wheat,[2]; active ingredient 250 g/ha,30%
same,Growth controlling degree (%) Rice,[3]; active ingredient 250 g/ha,60%
same,Growth controlling degree (%) Rice,[5]; active ingredient 250 g/ha,10%
same,Growth controlling degree (%) Corn,[6]; active ingredient 250 g/ha,40%
same,Growth controlling degree (%) Soyabean,[7]; active ingredient 250 g/ha,30%
same,Growth controlling degree (%) Japanese bulrush,[8]; active ingredient 250 g/ha,95%
same,Growth controlling degree (%) Barnyardgrass,[9]; active ingredient 250 g/ha,100%
same,Growth controlling degree (%) Redroot pigweed,[10]; active ingredient 250 g/ha,80%
same,Growth controlling degree (%) Green foxtail,[11]; active ingredient 250 g/ha,98%
same,Growth controlling degree (%) Velvetleaf,[12]; active ingredient 250 g/ha,30%
same,Growth controlling degree (%) Prickly sida,[13]; active ingredient 250 g/ha,60%
same,Growth controlling degree (%) Barnyardgrass,[14]; active ingredient 250 g/ha,100%
CC(=Cc1ccccc1)C(=O)N(C)C(c1cnccc1C(F)(F)F)C(C)C (centres unmarked) [I-206],Growth controlling degree (%) Crabgrass,[1]; active ingredient 250 g/ha,100%
same,Growth controlling degree (%) wheat,[2]; active ingredient 250 g/ha,30%
same,Growth controlling degree (%) Rice,[3]; active ingredient 250 g/ha,40%
same,Growth controlling degree (%) Rice,[5]; active ingredient 250 g/ha,10%
same,Growth controlling degree (%) Corn,[6]; active ingredient 250 g/ha,30%
same,Growth controlling degree (%) Soyabean,[7]; active ingredient 250 g/ha,20%
same,Growth controlling degree (%) Japanese bulrush,[8]; active ingredient 250 g/ha,98%
same,Growth controlling degree (%) Barnyardgrass,[9]; active ingredient 250 g/ha,100%
same,Growth controlling degree (%) Redroot pigweed,[10]; active ingredient 250 g/ha,70%
same,Growth controlling degree (%) Green foxtail,[11]; active ingredient 250 g/ha,100%
same,Growth controlling degree (%) Velvetleaf,[12]; active ingredient 250 g/ha,40%
same,Growth controlling degree (%) Prickly sida,[13]; active ingredient 250 g/ha,50%
same,Growth controlling degree (%) Barnyardgrass,[14]; active ingredient 250 g/ha,100%
CC(=O)N(C)C(c1cnccc1C(F)(F)F)C(C)C (centres unmarked) [I-208],Growth controlling degree (%) Crabgrass,[1]; active ingredient 250 g/ha,100%
same,Growth controlling degree (%) wheat,[2]; active ingredient 250 g/ha,80%
same,Growth controlling degree (%) Rice,[3]; active ingredient 250 g/ha,100%
same,Growth controlling degree (%) Rice,[5]; active ingredient 250 g/ha,70%
same,Growth controlling degree (%) Corn,[6]; active ingredient 250 g/ha,70%
same,Growth controlling degree (%) Soyabean,[7]; active ingredient 250 g/ha,60%
same,Growth controlling degree (%) Japanese bulrush,[8]; active ingredient 250 g/ha,98%
same,Growth controlling degree (%) Barnyardgrass,[9]; active ingredient 250 g/ha,100%
same,Growth controlling degree (%) Redroot pigweed,[10]; active ingredient 250 g/ha,90%
same,Growth controlling degree (%) Green foxtail,[11]; active ingredient 250 g/ha,100%
same,Growth controlling degree (%) Velvetleaf,[12]; active ingredient 250 g/ha,50%
same,Growth controlling degree (%) Prickly sida,[13]; active ingredient 250 g/ha,80%
same,Growth controlling degree (%) Barnyardgrass,[14]; active ingredient 250 g/ha,98%

# Reference: patent US20050239656A1, “Pyridine compounds or salts thereof and herbicides containing the same” (priority 2002, published 2005)
